US20230013402A1, “REGENERATING FUNCTIONS AND PHENOTYPES OF CONNECTIVE TISSUE THROUGH NPAS2 SUPPRESSION” (The Regents of the University of California, priority 2019, published 2023)
Where a name gives a salt, the structure may show the parent alone. Read-outs that look alike come from different tables or passages of the source.

How the values were obtained:
human skin fibroblasts = assay: High-throughput cell migration assay (Oris Pro Cell Migration Assay plate) / standardized viability; assay type: cell-based
From the text: (§1) Mouse MSC carrying Npas2-LacZ reporter gene, as described by Hassan N, et al., PLoS One. 2017; 12(8):e0183359, which is incorporated by reference herein in its entirety, was immortalized using SV40 in order to accommodate a large-scale HTS. […] This cell system was used to screen FDA Approved Drug Library (1120 compounds). The same library was also screened for cell viability by Calcein AM Hoechst 33342 staining Cell migration assays using the Oris™ Pro Cell Migration Assay plate, as described by Joy M E et al., PloS one. 2014; 9(2):e88350, which is incorporated by reference herein in its entirety, was used for a high-throughput migration assay using human skin fibroblasts
(§2) The combined Z score was used to identify hit compounds (Table 1).

[1] = system: Npas2-LacZ reporter gene (Npas2 expression); assay: High throughput screening of FDA Approved Drug Library for Npas2-LacZ reporter expression; assay type: cell-based, mouse
From the text: as §1, §2

Npas2-LacZ expression = assay: High throughput screening of LOPAC1280 for Npas2-LacZ expression of mouse BMSC; assay type: cell-based; parameters: concentration or dose not given beside the values; details: Activity against negative controls in LOPAC screening; Npas2 downregulation
From the text: FIGS. 13A-13C show an unbiased chemical genetics analysis was used to determine the molecular mechanisms underlying implant osseointegration. […] Hit compounds were identified as z-score >2.5 or <−2.5.
Femur BMSC derived from Npas2−/− mouse was previously characterized for the expression of LacZ, as described by Hassan, N., et al., (2017) Titanium biomaterials with complex surfaces induced aberrant peripheral circadian rhythms in bone marrow mesenchymal stromal cells. PLoS One 12, e0183359, which is incorporated by reference herein in its entirety, which was used for high throughput screening of LOPAC 1280 (FIG. 13A). […] The validation study identified a total of 14 compounds (FIG. 13C), which were subjected to the chemical genetics analysis. […] By contrast, Npas2 down regulating compounds stimulate or accumulate cAMP, or induce cAMP response element binding (CREB) activation (Table 3).

fibroblasts = details: in vitro, compared to vehicle; cited from earlier work
[2] = Table 2, additional Npas2 expression suppressors
[3] = Table 1, HTS of FDA Drug Library
[4] = Table 1, combined Z score (product)

Molecule | Migration (standardized viability) Z Score (human skin fibroblasts; [2]) | NPAS2 Z Score [1, 2] | further results
OCC(O)CN1CCN(c2ccccc2)CC1 (racemic) [Dropropizine (R,S)] | −1.21 | −2.27 | –
CCCCCC[C@H]1C(=O)O[C@H](C)[C@H](NC(=O)c2cccc(NC=O)c2O)C(=O)O[C@@H](C)[C@@H]1OC(=O)CC(C)C (stereo in doubt) [Antimycin A] | – | – | Migration (standardized viability) Z Score (human skin fibroblasts; [3]): 2.13; NPAS2 Z Score [1, 3]: −2.72; NPAS Z × ViabilityZ [1, 4]: −5.79
CC(C)NC[C@H](O)COc1ccc(CC(N)=O)cc1 [(S)-(-)-Atenolol, (S)-(−)-Atenolol] | – | – | NPAS2 Z Score [1]: −2
CC(=O)OC1CN2CCC1CC2.Cl (stereo not drawn) [Aceclidine Hydrochloride] | 0.198 | −2.2 | –
O=C(O)COC(=O)Cc1ccccc1Nc1c(Cl)cccc1Cl [Aceclofenac] | 0.666 | −2.16 | –
CCCNC(C)C(=O)Nc1c(C)csc1C(=O)OC.Cl (stereo not drawn) [Articaine hydrochloride] | −0.466 | −2.02 | –
CN1[C@@H]2CC[C@H]1CC(OC(=O)C(CO)c1ccccc1)C2.CN1[C@@H]2CC[C@H]1CC(OC(=O)C(CO)c1ccccc1)C2.O.O=S(=O)(O)O (stereo partly drawn) [Atropine sulfate monohydrate] | – | −2.04 | NpasZ × ViabilityZ ([1]; Table 2, combined Z score (product)): −0.3692
CN(Cc1ccc(C(C)(C)C)cc1)Cc1cccc2ccccc12.Cl [Butenafine Hydrochloride] | 0.239 | −2.02 | –
NC(=O)OCC(O)COc1ccc(Cl)cc1 (stereo not drawn) [Chlorphensin carbamate] | −0.157 | −2.36 | –
C[C@@H]1C[C@@H]([C@H](O)CC2CC(=O)NC(=O)C2)C(=O)[C@@H](C)C1 [Cycloheximide] | −4.91 | −3.29 | –
COc1cccc2c1C(=O)c1c(O)c3c(c(O)c1C2=O)C[C@@](O)(C(C)=O)C[C@@H]3O[C@H]1CC(N)[C@H](O)C(C)O1.Cl (stereo partly drawn) [Daunorubicin hydrochloride] | −4.56 | −2.45 | –
CCN(CC)C(=O)N1CCN(C)CC1.O=C(O)CC(O)(CC(=O)O)C(=O)O [Diethylcarbamazine citrate] | −2.08 | −2.36 | –
O=C(OC1C[C@@H]2CC3C[C@H](C1)N2CC3=O)c1c[nH]c2ccccc12 (stereo partly drawn) [Dolasetron mesilate] | −1.91 | −2.64 | –
C[C@H]1CCC/C=C/[C@@H]2C[C@H](O)C[C@H]2[C@H](O)/C=C/C(=O)O1 [Down01, Brefeldin A] | – | – | % Activity (Npas2-LacZ expression): −45.4%
COc1cc2c(c(OC)c1OC)-c1ccc(OC)c(=O)cc1[C@@H](NC(C)=O)CC2 [Down03, Colchicine] | – | – | % Activity (Npas2-LacZ expression): −29.7%
CC[n+]1c(/C=C/C=C2/N(C)c3ccccc3C2(C)C)sc2ccccc21.[I-] [Down06, AC-93253 iodide] | – | – | % Activity (Npas2-LacZ expression): −25.1%
c1ccc2c(c1)[I+]c1ccccc1-2 [Down08, Diphenyleneiodonium chloride] | – | – | % Activity (Npas2-LacZ expression): −18.6%
COc1cc([C@@H]2c3cc4c(cc3[C@H](O)[C@H]3COC(=O)[C@H]23)OCO4)cc(OC)c1OC [Down10, Podophyllotoxin] | – | – | % Activity (Npas2-LacZ expression): −15.6%
C/C=C(/C)C(=O)O[C@H]1C(C)=C2[C@H]([C@@H]1OC(=O)CCCCCCC)[C@@](C)(OC(C)=O)C[C@H](OC(=O)CCC)[C@@]1(O)[C@H]2OC(=O)[C@@]1(C)O [Down12, THAPSIGARGIN] | – | – | % Activity (Npas2-LacZ expression): −43.5%
CCN(CC)CCOc1ccc(Nc2ncc3cc(-c4c(Cl)cccc4Cl)c(=O)n(C)c3n2)cc1 [Down13, PD-166285 hydrate] | – | – | % Activity (Npas2-LacZ expression): −35.5%

Molecule | Migration (standardized viability) Z Score (human skin fibroblasts; [2]) | NPAS2 Z Score [1, 2] | further results
Cn1c(=O)c(-c2c(Cl)cccc2Cl)cc2cnc(Nc3ccc(N4CCOCC4)cc3)nc21 [Down14, PD-173952] | – | – | % Activity (Npas2-LacZ expression): −33.0%
Clc1ccc(COC(Cn2ccnc2)c2ccc(Cl)cc2Cl)cc1 (stereo not drawn) [Econazole nitrate] | 0.805 | −2.41 | –
C[C@]12CC[C@@H]3c4ccc(O)cc4CC[C@H]3[C@@H]1CCC2=O [Estrone] | −2.56 | −2.01 | –
O=[N+]([O-])O[C@@H]1CO[C@H]2[C@@H]1OC[C@@H]2O [Isosorbide mononitrate] | 0.647 | −2.01 | –
S=c1nc[nH]c2nc[nH]c12 [MS-1500387, Mercaptopurine] | 0.577 | −2.08 | –
CCOC(=O)[C@H](CCc1ccccc1)N[C@@H](C)C(=O)N1CCC[C@H]1C(=O)O [MS-1501214, enalapril maleate] | −1.53 | −3.22 | –
Cl.NCc1ccc(S(N)(=O)=O)cc1 [Mafenide hydrochloride] | −0.188 | −2.8 | –
CCN(CC)CCNC(=O)COc1ccc(OC)cc1.Cl [Mefexamide hydrochloride, mefexamide hydrochloride] | – | – | Migration (standardized viability) Z Score (human skin fibroblasts; [3]): 1.12; NPAS2 Z Score [1, 3]: −2.06; NPAS Z × ViabilityZ [1, 4]: −2.31
CCc1c(C)[nH]c2c1C(=O)C(CN1CCOCC1)CC2.Cl (stereo not drawn) [Molindone hydrochloride] | – | – | Migration (standardized viability) Z Score (human skin fibroblasts; [3]): 1.22; NPAS2 Z Score [1, 3]: −2.1; NPAS Z × ViabilityZ [1, 4]: −2.56
CC[C@@]1([C@@H]2OC(C3O[C@@](O)(CO)[C@H](C)C[C@@H]3C)C[C@@H]2C)CC[C@H]([C@]2(C)CC[C@@]3(C[C@H](O)[C@@H](C)C([C@@H](C)[C@@H](OC)[C@H](C)C(=O)O)O3)O2)O1 (stereo partly drawn) [Monensin sodium salt] | −8.13 | −4.34 | –
Cc1c(NC(=O)c2cccnc2)c(=O)n(-c2ccccc2)n1C [Nifenazone] | −0.243 | −2.41 | –
O=C(O)c1cccnc1Nc1cccc(C(F)(F)F)c1 [Niflumic Acid, Niflumic acid] | – | – | Migration (standardized viability) Z Score (human skin fibroblasts; [3]): 1.79; NPAS2 Z Score [1, 3]: −1.99; NPAS Z × ViabilityZ [1, 4]: −3.56
O=C(N/N=C/c1ccc([N+](=O)[O-])o1)c1ccc(O)cc1 [Nifuroxazide] | −0.402 | −3.43 | –
CC[C@H](C)C(=O)O[C@H]1C[C@H](O)C=C2C=C[C@H](C)[C@H](CC[C@@H](O)C[C@@H](O)CC(=O)O)[C@H]21 [Pravastatin] | 0.64 | −2.16 | –
C[C@]12C=CC(=O)C=C1CC[C@@H]1[C@@H]2[C@@H](O)C[C@@]2(C)[C@H]1CC[C@]2(O)C(=O)CO [Prednisolone] | −2.31 | −2.42 | –
CNCC[C@@H](Oc1ccccc1C)c1ccccc1 [SAM001246626, Atomoxetine hydrochloride] | −0.749 | −2.6 | –
Cn1cnc2c1c(=O)[nH]c(=O)n2C [Theobromine] | −0.6 | −2.04 | –
CN1C(=O)OC(C)(C)C1=O [Trimethadione] | −0.105 | −2.74 | –
NCCc1c[nH]c2ccc(O)cc12 [serotonin] | – | – | Width of scratch zone (fibroblasts): reduced
Tyloxapol | – | – | Migration (standardized viability) Z Score (human skin fibroblasts): 0.572; NPAS2 Z Score [1]: −2.39; NpasZ × ViabilityZ [1]: −1.367
